Data reported in ChEMBL document CHEMBL5154791, “Optimization of a Pyrimidinone Series for Selective Inhibition of Ca2+/Calmodulin-Stimulated Adenylyl Cyclase 1 Activity for the Treatment of Chronic Pain” (J Med Chem, 2022).
Values after ≈ are worked out from the molar mass of the structure shown. Active and inactive are the calls of the source. The rule behind the calls is not given here.

Columns and labels:
Adenylate cyclase type 8 [1] = biological target: T1, Adenylate cyclase type 8 (Homo sapiens, UniProt P40145); assay: Inhibition of Ca2+/ CAM stimulated human AC8 activity expressed in AC3 and AC6-knockout HEK293 cells assessed as A23187 stimulated cAMP accumulation incubated for 30 mins followed by […] in presence of IBMX for 1 hr by HTRF assay relative to control; type: cell-based; design: concentration or dose not given beside the values; settings: time 90.0 min
Adenylate cyclase type 8 [2] = biological target: T1, Adenylate cyclase type 8; assay: Inhibition of Ca2+/ CAM stimulated human AC8 activity expressed in AC3 and AC6-knockout HEK293 cells assessed as A23187 stimulated cAMP accumulation incubated for 30 mins followed by […] in presence of IBMX for 1 hr by HTRF assay; type: cell-based
Adenylate cyclase type 1 = Adenylate cyclase type 1 (Homo sapiens, UniProt Q08828)
Description: Inhibition of Ca2+/ CAM stimulated human AC1 activity expressed in AC3 and AC6-knockout HEK293 cells assessed as A23187 stimulated cAMP accumulation incubated for 30 mins followed by A2318 stimulation in presence of IBMX for 1 hr by HTRF assay

[3] = biological target: Vascular endothelial growth factor receptor 2 (Homo sapiens) (UniProt P35968); assay: Inhibition of human recombinant VEGFR2 assessed as inhibition of phosphorylation activity at 10 uM using 33P-labeleled peptide substrate by radiometric scintillation counting assay relative to control
[4] = biological target: Insulin receptor (Homo sapiens) (UniProt P06213); assay: Inhibition of human recombinant IRK assessed as inhibition of phosphorylation activity at 10 uM using 33P-labeleled peptide substrate by radiometric scintillation counting assay relative to control
[5] = Thermodynamic solubility of the compound in PBS at pH 7.4; type: physicochemical; settings: read-out: Therm_solubility
[6] = biological target: 5-hydroxytryptamine receptor 2B (Homo sapiens, UniProt P41595); assay: Binding affinity to 5-HT2B receptor (unknown origin) assessed as displacement of radioligand at 10 uM by radioligand binding assay
Adenylate cyclase type 8 [7] = biological target: T1, Adenylate cyclase type 8; assay: Inhibition of Ca2+/ CAM stimulated human AC8 expressed in AC3 and AC6-knockout HEK293 cells assessed as A23187 stimulated cAMP accumulation at 10 uM incubated for 30 mins followed by […] in presence of IBMX for 1 hr by HTRF assay relative to control; type: cell-based; settings: time 90.0 min
HEK293 = assay: Cytotoxicity against HEK293 cells assessed as reduction in cell viability at 30 uM incubated for 1 hr by cell titer glo assay; type: toxicity, cell-based; settings: human, hek293, 1 h

Sequence of Adenylate cyclase type 1 (Q08828 whole entry): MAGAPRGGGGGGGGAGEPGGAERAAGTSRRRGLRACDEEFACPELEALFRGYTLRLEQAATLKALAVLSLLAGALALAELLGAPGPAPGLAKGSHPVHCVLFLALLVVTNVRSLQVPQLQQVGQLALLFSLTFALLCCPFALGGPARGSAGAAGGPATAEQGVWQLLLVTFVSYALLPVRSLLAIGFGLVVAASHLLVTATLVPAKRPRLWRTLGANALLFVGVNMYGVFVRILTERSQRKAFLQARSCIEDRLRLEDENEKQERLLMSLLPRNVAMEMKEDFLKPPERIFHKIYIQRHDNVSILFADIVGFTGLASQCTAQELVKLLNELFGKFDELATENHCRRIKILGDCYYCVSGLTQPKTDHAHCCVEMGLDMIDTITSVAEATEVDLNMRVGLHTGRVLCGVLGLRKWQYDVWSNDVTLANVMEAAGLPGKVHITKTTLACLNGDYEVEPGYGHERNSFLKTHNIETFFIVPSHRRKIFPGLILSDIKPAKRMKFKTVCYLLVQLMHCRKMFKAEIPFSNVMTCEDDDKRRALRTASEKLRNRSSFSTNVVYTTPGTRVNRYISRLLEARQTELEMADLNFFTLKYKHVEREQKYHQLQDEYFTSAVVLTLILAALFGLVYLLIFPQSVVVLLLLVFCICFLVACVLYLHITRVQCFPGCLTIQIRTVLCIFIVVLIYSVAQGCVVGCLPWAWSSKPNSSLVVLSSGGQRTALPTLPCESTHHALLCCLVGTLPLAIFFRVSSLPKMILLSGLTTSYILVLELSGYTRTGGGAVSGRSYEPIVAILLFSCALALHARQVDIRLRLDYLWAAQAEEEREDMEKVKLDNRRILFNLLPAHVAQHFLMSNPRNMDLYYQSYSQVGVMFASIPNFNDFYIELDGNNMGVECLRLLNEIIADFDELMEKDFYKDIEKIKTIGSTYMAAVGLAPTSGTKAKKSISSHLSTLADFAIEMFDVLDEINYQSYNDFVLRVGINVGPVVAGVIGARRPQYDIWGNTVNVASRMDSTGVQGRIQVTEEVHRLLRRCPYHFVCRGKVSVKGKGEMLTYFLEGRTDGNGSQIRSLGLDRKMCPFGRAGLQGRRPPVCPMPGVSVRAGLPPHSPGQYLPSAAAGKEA
T1 sequence (P40145 whole entry): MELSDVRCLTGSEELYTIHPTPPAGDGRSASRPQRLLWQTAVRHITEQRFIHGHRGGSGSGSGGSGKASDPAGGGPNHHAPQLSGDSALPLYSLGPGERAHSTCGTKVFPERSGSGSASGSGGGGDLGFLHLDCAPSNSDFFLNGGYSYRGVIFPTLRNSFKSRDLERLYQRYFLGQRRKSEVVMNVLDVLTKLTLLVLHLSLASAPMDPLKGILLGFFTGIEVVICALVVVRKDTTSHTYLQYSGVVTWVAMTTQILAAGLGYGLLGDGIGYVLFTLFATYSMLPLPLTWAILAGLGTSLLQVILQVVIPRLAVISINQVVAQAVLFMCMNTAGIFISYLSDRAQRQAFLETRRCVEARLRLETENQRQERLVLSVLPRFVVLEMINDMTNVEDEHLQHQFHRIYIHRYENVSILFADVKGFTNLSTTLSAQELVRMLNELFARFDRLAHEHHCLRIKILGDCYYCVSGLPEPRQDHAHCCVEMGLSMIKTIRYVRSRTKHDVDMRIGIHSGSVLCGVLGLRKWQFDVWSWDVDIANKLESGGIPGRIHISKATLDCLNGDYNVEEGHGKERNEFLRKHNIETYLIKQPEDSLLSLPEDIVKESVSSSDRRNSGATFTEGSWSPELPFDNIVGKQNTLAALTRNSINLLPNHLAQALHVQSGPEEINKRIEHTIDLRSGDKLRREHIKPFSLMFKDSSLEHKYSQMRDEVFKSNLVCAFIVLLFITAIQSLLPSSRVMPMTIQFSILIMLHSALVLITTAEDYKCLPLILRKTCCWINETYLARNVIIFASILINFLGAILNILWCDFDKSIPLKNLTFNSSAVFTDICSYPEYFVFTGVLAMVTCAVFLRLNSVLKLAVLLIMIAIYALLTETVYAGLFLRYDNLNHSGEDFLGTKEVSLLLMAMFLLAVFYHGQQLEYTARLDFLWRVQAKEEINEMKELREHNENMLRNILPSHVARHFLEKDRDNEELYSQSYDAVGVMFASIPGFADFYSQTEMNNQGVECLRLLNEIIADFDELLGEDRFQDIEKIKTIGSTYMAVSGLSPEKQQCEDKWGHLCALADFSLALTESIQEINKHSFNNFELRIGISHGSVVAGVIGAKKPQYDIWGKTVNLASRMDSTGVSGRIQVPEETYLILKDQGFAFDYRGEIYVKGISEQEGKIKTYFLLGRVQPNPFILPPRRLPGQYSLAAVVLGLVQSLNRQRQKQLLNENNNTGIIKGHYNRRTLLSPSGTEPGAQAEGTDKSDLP
Sequence of 5-hydroxytryptamine receptor 2B (P41595 whole entry): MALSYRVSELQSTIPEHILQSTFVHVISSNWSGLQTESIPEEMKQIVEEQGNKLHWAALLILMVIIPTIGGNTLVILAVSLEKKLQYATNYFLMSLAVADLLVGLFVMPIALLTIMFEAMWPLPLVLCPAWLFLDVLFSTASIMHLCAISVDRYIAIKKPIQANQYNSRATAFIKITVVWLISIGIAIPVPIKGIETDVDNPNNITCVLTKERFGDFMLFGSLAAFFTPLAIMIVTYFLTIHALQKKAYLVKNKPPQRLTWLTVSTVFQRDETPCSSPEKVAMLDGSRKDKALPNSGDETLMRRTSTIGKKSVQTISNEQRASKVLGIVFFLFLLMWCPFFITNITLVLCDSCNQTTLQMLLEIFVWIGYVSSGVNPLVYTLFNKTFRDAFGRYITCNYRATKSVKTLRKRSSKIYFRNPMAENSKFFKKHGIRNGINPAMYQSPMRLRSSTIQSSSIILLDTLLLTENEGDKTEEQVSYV
Sequence of Vascular endothelial growth factor receptor 2 (Homo sapiens) (P35968 whole entry): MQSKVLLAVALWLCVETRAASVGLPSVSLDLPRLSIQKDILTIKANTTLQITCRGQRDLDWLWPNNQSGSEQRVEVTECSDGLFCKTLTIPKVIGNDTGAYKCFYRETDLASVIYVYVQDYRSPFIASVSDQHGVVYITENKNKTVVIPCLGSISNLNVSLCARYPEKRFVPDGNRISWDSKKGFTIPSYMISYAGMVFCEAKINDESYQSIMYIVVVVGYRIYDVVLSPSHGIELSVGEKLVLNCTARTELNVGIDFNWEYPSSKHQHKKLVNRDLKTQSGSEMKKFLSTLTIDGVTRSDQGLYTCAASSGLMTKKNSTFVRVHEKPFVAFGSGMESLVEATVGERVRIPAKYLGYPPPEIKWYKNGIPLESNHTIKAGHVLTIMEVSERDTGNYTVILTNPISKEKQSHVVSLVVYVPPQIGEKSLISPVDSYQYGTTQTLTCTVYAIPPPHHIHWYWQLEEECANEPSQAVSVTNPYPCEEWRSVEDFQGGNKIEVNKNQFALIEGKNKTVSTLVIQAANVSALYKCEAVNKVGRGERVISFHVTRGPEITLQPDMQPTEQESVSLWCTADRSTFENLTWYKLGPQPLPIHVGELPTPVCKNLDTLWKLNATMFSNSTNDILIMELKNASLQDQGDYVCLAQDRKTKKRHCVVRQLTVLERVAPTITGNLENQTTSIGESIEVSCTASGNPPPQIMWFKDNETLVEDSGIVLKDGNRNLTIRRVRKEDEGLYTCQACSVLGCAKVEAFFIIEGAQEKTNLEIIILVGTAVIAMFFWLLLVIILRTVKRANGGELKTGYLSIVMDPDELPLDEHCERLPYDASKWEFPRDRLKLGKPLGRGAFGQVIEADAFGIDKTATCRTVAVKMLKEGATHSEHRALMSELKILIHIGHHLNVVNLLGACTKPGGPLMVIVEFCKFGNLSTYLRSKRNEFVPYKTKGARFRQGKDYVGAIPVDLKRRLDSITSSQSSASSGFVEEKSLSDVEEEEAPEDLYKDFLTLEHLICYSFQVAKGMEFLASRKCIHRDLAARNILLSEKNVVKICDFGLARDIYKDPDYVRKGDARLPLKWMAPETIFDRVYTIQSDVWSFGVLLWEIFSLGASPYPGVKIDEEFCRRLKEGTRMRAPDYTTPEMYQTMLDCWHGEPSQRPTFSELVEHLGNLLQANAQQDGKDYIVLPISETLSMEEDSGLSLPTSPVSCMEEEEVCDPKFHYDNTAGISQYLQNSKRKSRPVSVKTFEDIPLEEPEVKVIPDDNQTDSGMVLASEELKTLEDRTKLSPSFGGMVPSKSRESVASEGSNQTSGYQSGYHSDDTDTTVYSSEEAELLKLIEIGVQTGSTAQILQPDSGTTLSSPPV

| Structure (SMILES) | inhibition (Adenylate cyclase type 8 [1]) | IC50 (Adenylate cyclase type 8 [2]) | IC50 (Adenylate cyclase type 1) | also measured |
| --- | --- | --- | --- | --- |
| CCc1cc(=O)[nH]c(-n2nc(C)cc2NC(=O)c2ccc(N(C)C)cc2)n1 | 39% | 1 µM | 2.3 µM | – |
| CCc1cccc(C(=O)Nc2cc(C)nn2-c2nc(CC)cc(=O)[nH]2)c1 | 12% | 3.5 µM | 0.44 µM | inhibition [3]: 28%; inhibition [4]: 57%; solubility thermodynamic [5]: 10.8 µM (≈ 3.8 µg/mL); inhibition ([6]; filed as antagonist): 49%; inhibition (Adenylate cyclase type 8 [7]): Active; Activity (HEK293): Non-Toxic |
| CCc1cc(=O)[nH]c(-n2nc(C)cc2NC(=O)c2cc(C)cc(C)c2)n1 | 27% | 1.7 µM | 0.52 µM | – |
| CCc1cc(=O)[nH]c(-n2nc(C)cc2NC(=O)c2cccc(OC)c2)n1 | 5% | 9.6 µM | 1.42 µM | – |
| CCc1cc(=O)[nH]c(-n2nc(C)cc2NC(C)=O)n1 | – | 10.6 µM | > 30 µM | – |
| CCc1cc(=O)[nH]c(-n2nc(C)cc2NC(=O)c2ccc(-c3ccccc3)cc2)n1 | 32% | 0.7 µM | 0.77 µM | – |
| CCc1cc(=O)[nH]c(-n2nc(C)cc2NC(=O)c2ccccn2)n1 | 46% | 2.8 µM | – | – |
| CCc1cc(=O)[nH]c(-n2nc(C)cc2NC(=O)c2ccccc2)n1 | 0% | 35.9 µM | 2.8 µM | – |
| CCc1cc(=O)[nH]c(-n2nc(C)cc2NC(=O)c2ccc(Cl)cc2)n1 | 53% | 2.5 µM | 0.36 µM | – |
| CCc1cc(=O)[nH]c(-n2nc(C)cc2NC(=O)c2ccccc2F)n1 | 46% | 1.9 µM | 1.4 µM | Ki [6]: 1.3 µM; inhibition (Adenylate cyclase type 8 [7]): Active; Activity (HEK293): Non-Toxic |
| CCOc1cccc(C(=O)Nc2cc(C)nn2-c2nc(CC)cc(=O)[nH]2)c1 | 11% | 4.4 µM | 0.9 µM | – |
| CCc1cc(=O)[nH]c(-n2nc(C)cc2NC(=O)c2ccc(C(C)(C)C)cc2)n1 | 35% | 1.2 µM | 0.97 µM | – |
| CCc1cc(=O)[nH]c(-n2nc(C)cc2NC(=O)c2cccc(C(F)(F)F)c2)n1 | 41% | 1.3 µM | 0.68 µM | – |
| CCc1cc(=O)[nH]c(-n2nc(C)cc2NC(=O)c2ccc(OCOC)cc2)n1 | – | > 30 µM | 4.3 µM | – |
| CCc1cc(=O)[nH]c(-n2nc(C)cc2NC(=O)c2cccc(F)c2)n1 | 55% | 1.6 µM | 1.4 µM | – |
| CCc1cc(=O)[nH]c(-n2nc(C)cc2NC(=O)c2ccc(F)cc2)n1 | 52% | 0.78 µM | 0.79 µM | – |
| CCc1cc(=O)[nH]c(-n2nc(C)cc2NC(=O)c2ccc(OC)cc2)n1 | 0% | > 60 µM | – | – |
| CCc1cc(=O)[nH]c(-n2nc(C)cc2NC(=O)c2ccc(C)cc2)n1 | 27% | > 60 µM | 0.67 µM | – |
| CCc1cc(=O)[nH]c(-n2nc(C)cc2NC(=O)c2ccco2)n1 | 20% | 15.7 µM | 6.7 µM | – |
